PubChem BioAssay (NCI)
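GI50 is the concentration that inhibits growth by half. TGI marks complete inhibition of growth.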

Key:
Experiment in all cases: NCI anticancer screen, dose series, 384-well format
SF-268 CNS = system: SF-268 CNS
SK-OV-3 ovarian = system: SK-OV-3 ovarian
LOX IMVI melanoma = system: LOX IMVI melanoma
HOP-92 NSCLC = system: HOP-92 NSCLC
HCT-15 colon = system: HCT-15 colon
T-47D breast = system: T-47D breast
NCI-H23 lung = system: NCI-H23 lung
TK-10 renal = system: TK-10 renal
A549 NSCLC = system: A549 NSCLC
SK-MEL-5 melanoma = system: SK-MEL-5 melanoma
HL-60(TB) leukemia = system: HL-60(TB) leukemia
KM12 colon = system: KM12 colon
786-0 renal = system: 786-0 renal
SN12C renal = system: SN12C renal
OVCAR-5 ovarian = system: OVCAR-5 ovarian
MCF7 breast = system: MCF7 breast
MOLT-4 leukemia = system: MOLT-4 leukemia
HOP-62 NSCLC = system: HOP-62 NSCLC
HCT-116 colon = system: HCT-116 colon
OVCAR-3 ovarian = system: OVCAR-3 ovarian
SF-539 CNS = system: SF-539 CNS
COLO 205 colon = system: COLO 205 colon
UO-31 renal = system: UO-31 renal
UACC-62 melanoma = system: UACC-62 melanoma
OVCAR-4 ovarian = system: OVCAR-4 ovarian
MDA-MB-231 breast = system: MDA-MB-231 breast
RXF 393 renal = system: RXF 393 renal
OVCAR-8 ovarian = system: OVCAR-8 ovarian
NCI-H322M lung = system: NCI-H322M lung

CCN1[C@@H](C(=O)NC23CCC(C(=O)O)(CC2)CC3)[C@H](c2cccc(Cl)c2F)[C@]2(C(=O)Nc3cc(Cl)ccc32)C12CCCCC2
TGI (SF-268 CNS): 6800 nM | GI50 (SK-OV-3 ovarian): 2960 nM | TGI (SK-OV-3 ovarian): 13700 nM | GI50 (LOX IMVI melanoma): 323 nM | TGI (LOX IMVI melanoma): 1840 nM | GI50 (HOP-92 NSCLC): 1770 nM | TGI (HOP-92 NSCLC): 4430 nM | GI50 (HCT-15 colon): 2660 nM | TGI (HCT-15 colon): 10100 nM | GI50 (T-47D breast): 1620 nM | TGI (T-47D breast): 6270 nM | GI50 (NCI-H23 lung): 1490 nM | TGI (NCI-H23 lung): 3950 nM | GI50 (TK-10 renal): 2890 nM | TGI (TK-10 renal): 11400 nM | GI50 (A549 NSCLC): 45.2 nM | TGI (A549 NSCLC): 1140 nM | GI50 (SK-MEL-5 melanoma): 239 nM | TGI (SK-MEL-5 melanoma): 1810 nM | GI50 (HL-60(TB) leukemia): 2030 nM | TGI (HL-60(TB) leukemia): 3460 nM | GI50 (KM12 colon): 2870 nM | TGI (KM12 colon): 9120 nM | GI50 (786-0 renal): 3490 nM | TGI (786-0 renal): 13500 nM | GI50 (SN12C renal): 3530 nM | TGI (SN12C renal): 12700 nM | GI50 (OVCAR-5 ovarian): 1920 nM | TGI (OVCAR-5 ovarian): 4660 nM | GI50 (MCF7 breast): 26.9 nM | TGI (MCF7 breast): 1120 nM | GI50 (MOLT-4 leukemia): < 10 nM | GI50 (HOP-62 NSCLC): 1590 nM | TGI (HOP-62 NSCLC): 4190 nM | GI50 (HCT-116 colon): 30.3 nM | TGI (HCT-116 colon): 1490 nM | GI50 (OVCAR-3 ovarian): 1440 nM | TGI (OVCAR-3 ovarian): 2900 nM | GI50 (SF-539 CNS): 2120 nM | TGI (SF-539 CNS): 5190 nM | GI50 (COLO 205 colon): 2200 nM | TGI (COLO 205 colon): 4460 nM | GI50 (UO-31 renal): 19.3 nM | TGI (UO-31 renal): 161 nM | GI50 (UACC-62 melanoma): < 10 nM | TGI (UACC-62 melanoma): 364 nM | GI50 (OVCAR-4 ovarian): 2220 nM | TGI (OVCAR-4 ovarian): 7320 nM | GI50 (MDA-MB-231 breast): 3130 nM | TGI (MDA-MB-231 breast): 14200 nM | GI50 (RXF 393 renal): 1020 nM | TGI (RXF 393 renal): 2560 nM | GI50 (OVCAR-8 ovarian): 3000 nM | TGI (OVCAR-8 ovarian): 11400 nM | GI50 (NCI-H322M lung): 3870 nM | TGI (NCI-H322M lung): 15100 nM
